Measured values: ChEMBL document CHEMBL1130161, “Cyclic urea amides: HIV-1 protease inhibitors with low nanomolar potency against both wild type and protease inhibitor resistant mutants of HIV” (J Med Chem, 1997)

Experiments:
[1] = tested on: Human immunodeficiency virus; assay: Resistance of constructed mutant 48V/90M virus was calculated as (IC90 for a mutant virus / IC90 of wt HXB2 virus); format: functional
[2] = tested on: Human immunodeficiency virus; assay: Resistance of constructed mutant MK639 virus was calculated as (IC90 for a mutant virus / IC90 of wt HXB2 virus).; format: functional
[3] = biological target: Human immunodeficiency virus type 1 protease (Human immunodeficiency virus 1) (UniProt Q72874); assay: Inhibitory concentration against accumulation of viral p24 antigen following infection of MT-4 cells; format: functional, cell-based; details: MT4
[4] = tested on: Human immunodeficiency virus; assay: Resistance of constructed mutant 84V virus was calculated as (IC90 for a mutant virus / IC90 of wt HXB2 virus).; format: functional
[5] = tested on: Human immunodeficiency virus; assay: Resistance of constructed mutant ABT538 virus was calculated as (IC90 for a mutant virus / IC90 of wt HXB2 virus); format: functional
[6] = tested on: Human immunodeficiency virus; assay: Resistance of constructed mutant 82A virus was calculated as (IC90 for a mutant virus / IC90 of wt HXB2 virus).; format: functional
[7] = biological target: Human immunodeficiency virus type 1 protease (Human immunodeficiency virus 1, UniProt Q72874); assay: Binding affinity to inhibit the purified wild-type HIV-1 Protease
[8] = Resistance of constructed mutant 82F virus was calculated as (IC90 for a mutant virus / IC90 of wt HXB2 virus).; format: functional
[9] = tested on: Human immunodeficiency virus; assay: Resistance of constructed mutant […]/47V/50V virus was calculated as (IC90 for a mutant virus / IC90 of wt HXB2 virus).; format: functional

Row | Compound | Resistance [1] | Resistance [2] | IC90 [3] | Resistance [4] | Resistance [5] | Resistance [6] | Ki [7] | Resistance [8] | Resistance [9]
1 | O=C(Nc1ncc[nH]1)c1cccc(CN2C(=O)N(Cc3ccccc3)[C@H](Cc3ccccc3)[C@H](O)[C@@H](O)[C@H]2Cc2ccccc2)c1 | 0.6 | 15 | 21 nM | 2.9 | 29 | 1 | 0.033 nM | 0.5 | 
2 | CC(C)CN(C[C@@H](O)[C@H](Cc1ccccc1)NC(=O)O[C@H]1CCOC1)S(=O)(=O)c1ccc(N)cc1 | 1.1 | 3.8 | 81 nM | 1.5 | 13 | 2.2 |  | 1.9 | 39
3 | O=C(Nc1nc2ccccc2[nH]1)c1cccc(CN2C(=O)N(Cc3cccc(C(=O)Nc4nc5ccccc5[nH]4)c3)[C@H](Cc3ccccc3)[C@H](O)[C@@H](O)[C@H]2Cc2ccccc2)c1 | 0.3 | 0.7 | 5.1 nM | 0.6 | 1.2 | 0.8 |  | 0.3 | 1
4 | O=C(Nc1ncc[nH]1)c1cccc(CN2C(=O)N(CC3CC3)[C@H](Cc3ccccc3)[C@H](O)[C@@H](O)[C@H]2Cc2ccccc2)c1 |  | 12 | 28 nM |  | 83 |  | 0.016 nM |  | 
5 | CC(C)(C)NC(=O)[C@@H]1C[C@@H]2CCCC[C@@H]2CN1C[C@@H](O)[C@H](Cc1ccccc1)NC(=O)[C@H](CC(N)=O)NC(=O)c1ccc2ccccc2n1 | 20 | 5.3 | 15 nM | 0.7 | 0.6 | 0.9 |  | 0.4 | 
6 | CCCCN1C(=O)N(Cc2cccc(C(=O)Nc3ncc[nH]3)c2)[C@H](Cc2ccccc2)[C@H](O)[C@@H](O)[C@H]1Cc1ccccc1 | 1 | 14.5 | 18 nM | 4.2 | 27 | 1.4 | 0.025 nM | 14.5 | 
7 | O=C(Nc1nc2ccccc2[nH]1)c1cccc(CN2C(=O)N(CC3CC3)[C@H](Cc3ccccc3)[C@H](O)[C@@H](O)[C@H]2Cc2ccccc2)c1 | 1.9 | 26 | 17 nM | 8.4 | 86 | 1.9 | 0.037 nM | 2.1 | 2.1
8 | CC(C)[C@H](NC(=O)OCc1ccccc1)C(=O)N[C@@H](Cc1ccccc1)[C@H](O)[C@@H](O)[C@@H](Cc1ccccc1)NC(=O)[C@H](NC(=O)OCc1ccccc1)C(C)C | 1.3 | >150 | 195 nM | 2.1 | 13 | 6 | 0.25 nM | 1.8 | 6.5
9 | O=C(Nc1nccs1)c1cccc(CN2C(=O)N(Cc3cccc(C(=O)Nc4nccs4)c3)[C@H](Cc3ccccc3)[C@H](O)[C@@H](O)[C@H]2Cc2ccccc2)c1 | 0.2 | 8.7 | 4.2 nM | 1.2 | 24 | 2.2 |  | 0.9 | 23
10 | O=C1N(Cc2ccc(CO)cc2)[C@H](Cc2ccccc2)[C@H](O)[C@@H](O)[C@@H](Cc2ccccc2)N1Cc1ccc(CO)cc1 [DMP-323] | 0.3 | 18 | 95 nM | 22 | 93 | 2.8 |  | 7.1 | 11
11 | Nc1cccc(CN2C(=O)N(Cc3cccc(N)c3)[C@H](Cc3ccccc3)[C@H](O)[C@@H](O)[C@H]2Cc2ccccc2)c1 [MOZENAVIR] | 1.5 | 27 | 120 nM | 9.9 | 49 | 2.5 | 0.34 nM | 5.3 | 7.5
12 | CC(C)(C)NC(=O)[C@@H]1CN(Cc2cccnc2)CCN1C[C@@H](O)C[C@@H](Cc1ccccc1)C(=O)N[C@H]1c2ccccc2C[C@H]1O.O | 3.6 | 18 | 28 nM | 0.5 | 6.5 | 2.5 |  | 2.8 | 1.8
13 | CC(C)c1nc(CN(C)C(=O)N[C@H](C(=O)N[C@@H](Cc2ccccc2)C[C@H](O)[C@H](Cc2ccccc2)NC(=O)OCc2cncs2)C(C)C)cs1 [RITONAVIR] | 5 | 5.5 |  | 2.4 | 30 | 7.1 |  | 8.9 | 6
14 | O=C(Nc1nccs1)c1cccc(CN2C(=O)N(Cc3ccccc3)[C@H](Cc3ccccc3)[C@H](O)[C@@H](O)[C@H]2Cc2ccccc2)c1 | 1.9 | 10 | 74 nM | 7.2 | 31 | 4.9 | 0.074 nM | 3 | 10.2
15 | O=C1N(CC2CC2)[C@H](Cc2ccccc2)[C@H](O)[C@@H](O)[C@@H](Cc2ccccc2)N1CC1CC1 | 1.3 | 11 | 2100 nM | 6.6 | 7.2 | 1.4 |  | 4 | 1.7
16 | O=C(Nc1nccs1)c1cccc(CN2C(=O)N(CC3CC3)[C@H](Cc3ccccc3)[C@H](O)[C@@H](O)[C@H]2Cc2ccccc2)c1 | 0.9 | 18.5 | 40 nM | 6.1 | 41 | 1.8 |  | 4.1 | 11
17 | O=C(Nc1ncc[nH]1)c1cccc(CN2C(=O)N(Cc3cccc(C(=O)Nc4ncc[nH]4)c3)[C@H](Cc3ccccc3)[C@H](O)[C@@H](O)[C@H]2Cc2ccccc2)c1 | 0.1 | 0.4 | 19 nM | 0.7 | 0.2 | 2.7 |  | 1.6 | 0.4
